Data published in US20240336596A1, “PARP7 INHIBITOR AND USE THEREOF” (NOVOSTAR PHARMACEUTICALS, LTD., priority 2022, published 2024).
pIC50: −log10 of the molar value.

Legend:
[1] = Pharmacokinetic study in mice (IV and oral gavage); assay type: in vivo, CD-1 mice; settings: for clearance / bioavailability / AUC(0-t) / half-life / Cmax: mouse, plasma, male CD-1 mice; for clearance: read-out: CL(iv) (converted); for bioavailability: oral bioavailability, PO 10 mg/kg vs IV 3 mg/kg; for AUClast (plasma exposure) relative to RBN-2397 / drug plasma half-life (T1/2) relative to RBN-2397 / drug clearance (CL(iv)) relative to RBN-2397 / maximum blood concentration (Cmax) relative to RBN-2397: mice; for drug plasma half-life (T1/2) relative to RBN-2397 / drug clearance (CL(iv)) relative to RBN-2397: intravenous administration; for drug clearance (CL(iv)) relative to RBN-2397: fraction of RBN-2397 value
Method: Formulation of intravenous and oral gavage administration solutions: The compounds to be tested were dissolved in solutions formulated with 5% DMSO, 10% solutol HS15, and 85% saline.
Dosage (measured as the amount of compound in the administration solution (mg)/mouse body weight (kg)): 3 mg/kg intravenously (IV), 10 mg/kg oral gavage (PO).
A total of 18 CD-1 mice (Shanghai Jihui Experimental Animal Feeding Co., LTD.), male, weight 28-31 g, were fasted for 12 hours and randomly divided into 2 groups (Group A and Group B) with 9 mice in each group. Animals in Group A were given the compound solution by oral gavage at the dose of 10 mg/kg. Animals in Group B were given the compound solution by tail vein injection at the dose of 3 mg/kg, and blank blood was taken before administration. About 110 μL of venous blood was taken from animals in Group A at 0.25 h, 0.5 h, 1 h, 2 h, 4 h, 8 h, and 24 h after administration. About 110 μL of venous blood was taken from animals in Group B at 0.083 h, 0.25 h, 0.5 h, 1 h, 2 h, 4 h, 8 h, and 24 h after administration, and all were placed in test tubes with heparin, centrifuged, and plasma was collected and stored at −70° C. for testing.
AUClast represents the area under the drug time curve from the beginning of the administration time to the last point, that is, the area surrounded by the blood drug concentration curve to the time axis. CL(iv) represents the drug clearance of intravenous administration; T1/2 represents the plasma half-life of the drug, which refers to the time required for half of the drug to be eliminated from the body. Cmax represents the maximum concentration of the drug in the plasma after administration. F % indicates oral bioavailability of the drug.

[2] = molecular target: T1, recombinant human PARP7 protein (Homo sapiens, UniProt Q7Z3E1); experiment: Inhibition of PARP7 biological enzyme activity (histone-coated plate, Biotin-NAD+, chemiluminescence); assay type: biochemical; settings: recombinant human PARP7, Biotin-NAD+ substrate
T1 construct: purchased Abcam ab271651
T1 sequence (Q7Z3E1 1-657): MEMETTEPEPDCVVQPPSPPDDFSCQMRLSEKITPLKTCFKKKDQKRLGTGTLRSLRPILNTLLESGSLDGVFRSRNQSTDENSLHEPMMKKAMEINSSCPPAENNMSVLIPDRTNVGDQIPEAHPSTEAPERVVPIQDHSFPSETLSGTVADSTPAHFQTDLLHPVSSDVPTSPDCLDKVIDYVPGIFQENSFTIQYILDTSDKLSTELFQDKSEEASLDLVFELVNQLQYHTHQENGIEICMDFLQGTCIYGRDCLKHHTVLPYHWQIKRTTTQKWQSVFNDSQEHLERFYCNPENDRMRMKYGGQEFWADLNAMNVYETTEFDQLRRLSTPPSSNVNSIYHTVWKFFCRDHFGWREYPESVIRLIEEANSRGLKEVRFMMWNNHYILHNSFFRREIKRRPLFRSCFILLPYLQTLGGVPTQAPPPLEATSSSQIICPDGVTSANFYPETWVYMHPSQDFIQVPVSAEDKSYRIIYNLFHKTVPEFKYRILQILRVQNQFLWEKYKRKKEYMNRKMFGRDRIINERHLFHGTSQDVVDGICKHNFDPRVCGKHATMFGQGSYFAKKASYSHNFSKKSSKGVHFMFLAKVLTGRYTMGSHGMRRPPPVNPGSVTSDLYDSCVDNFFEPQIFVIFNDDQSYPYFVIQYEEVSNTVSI
Method: The recombinant human PARP7 protein kit (Abcam, catalog number ab271651) was used for the assay. According to the kit instructions, 30 μL of histone coating solution (1.5 μg/mL) was first applied to the 384 well holes of the reaction plate and coated at 4° C. for 2 hours. Then, the histone coated solution was washed off, and 50 μL sealing buffer was added to each well, and the sealing buffer was washed off after incubation at 25° C. for 60 minutes. 1000 times the concentration of the compound was 10 configured and diluted from 1 mM to 0.05 μM, and the configured compound was transferred to 384-well plates with 25 nL per well using Echo. The final concentration of the compound in the reaction system was 1000 nM, 333.33 nM, 111.11 nM, 37.03 nM, 12.34 nM, 4.11 nM, 1.37 nM, 0.45 nM, 0.15 nM, 0.05 nM, which was used as the test hole. At the same time, 25 nL DMSO was added to the negative control well and the positive control well. The PARP7 enzyme solution with a concentration of 1.67 times was prepared, and the PARP7 enzyme solution was added to the test hole and the positive control hole with 15 μL each, while the negative control hole was added with 15 μL base Buffer, and incubated at 25° C. for 15 minutes. Then 10 μL 2.5 times Biotin-NAD+ substrate solution was added and incubated at 25° C. for 60 min. After the reaction solution was washed off, the 384-well reaction plates were treated with closed buffer solution diluted with streptavidin-HRP (1:500), each well was 30 μL, and incubated at 25° C. for 30 min. After the HRP buffer was washed off, 30 μL HRP chemiluminescent substrate mixture was added to each well, and the luminescence signal (RLU) of each well was detected by Envision. Calculation formula: Inhibition rate %=(average positive control-RLU compound)/(average positive control-average negative control))*100%. The dose-response curves of each compound were fitted by GraphPad Prism 8 to get IC50 values. IC50 values less than 0.01 μM are labeled as “+++”, IC50 values from 0.01 to 0.1 µM are labeled as “++”, and IC50 values greater than 0.1 to 10.0 μM are labeled as “+”.

NCI-H1373 cancer cells = experiment: NCI-H1373 cancer cell growth inhibition (CellTiter-Glo, 144 hours); assay type: cell-based; settings: Homo sapiens, 144 hours culture
Method in brief: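 Cells seeded at 3500/well and dosed after 24 h with a 10-point series from 10 μM down to 0.0005 μM (0.2% DMSO). After 144 h, viability was read by CellTiter-Glo luminescence. Growth inhibition was calculated relative to day-0 and solvent-control RLU, and IC50 was obtained from dose-response curve fits.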

SMILES | clearance ([1]; IV 3 mg/kg) [mL/min/kg] | bioavailability [1] [%] | AUC(0-t) ([1]; IV 3 mg/kg) [ng·h/mL] | half-life ([1]; IV 3 mg/kg) [h] | AUC(0-t) ([1]; PO 10 mg/kg) [ng·h/mL] | Cmax ([1]; PO 10 mg/kg) [ng/mL] | pIC50 [2] | pIC50 (NCI-H1373 cancer cells) | AUClast (plasma exposure) relative to RBN-2397 ([1]; 3 mg/kg intravenous injection) | drug plasma half-life (T1/2) relative to RBN-2397 [1] [times] | drug clearance (CL(iv)) relative to RBN-2397 [1] | AUClast (plasma exposure) relative to RBN-2397 ([1]; oral gavage 10 mg/kg) | maximum blood concentration (Cmax) relative to RBN-2397 ([1]; oral gavage 10 mg/kg) [times]
C[C@@H](COCCC(=O)N1CCN(c2ncc(C(F)(F)F)cn2)CC1)Nc1cn[nH]c(=O)c1C(F)(F)F [RBN-2397, reference compound] | 68.3 | 23.9 | 732 | 0.2 | 582 | 682 | – | – | – | – | – | – | –
C[C@@H](CONC(=O)CC1CCN(c2ncc(C(F)(F)F)cn2)CC1)Nc1cn[nH]c(=O)c1C(F)(F)F [Example 17, (S)—N-(2-((6-oxo-5-(trifluoromethyl)-1,6-dihydropyridazin-4-yl)amino)propoxy)-2-(1-(5-(trifluoromethyl)pyrimidin-2-yl)piperidin-4-yl)acetamide] | 15.5 | 61.3 | 3210 | 1.62 | 6550 | 5320 | > 8.00 | > 7.00 | about 4.4 times | 8 | about ⅕ | about 11.3 times | 7.8
C[C@@H](CONC(=O)CC1=CCN(c2ncc(C(F)(F)F)cn2)CC1)Nc1cn[nH]c(=O)c1C(F)(F)F [Example 25, (S)—N-(2-((6-oxo-5-(trifluoromethyl)-1,6-dihydropyridazin-4-yl)amino)propoxy)-2-(1-(5-(trifluoromethyl)pyrimidin-2-yl)-1,2,3,6-tetrahydropyridin-4-yl)acetamide] | 17.8 | 75.9 | 2780 | 5.55 | 7060 | 7230 | – | > 7.00 | about 3.8 times | 27.8 | about ⅕ | ~12.1 times | 10.6
